Assay results taken from patent US12522601B2, “1,3,4-oxadiazole derivative compounds as histone deacetylase 6 inhibitor, and the pharmaceutical composition comprising the same” (CHONG KUN DANG PHARMACEUTICAL CORP., priority 2020, dated 2026).

Experiments:
human recombinant HDAC1 = target: T1, human recombinant HDAC1 (Homo sapiens, UniProt Q13547); test: In vitro HDAC enzyme activity inhibition assay, HDAC1 (HDAC Fluorimetric Drug Discovery Kit); format: biochemical; conditions: human recombinant HDAC1, Fluor de Lys-SIRT1 substrate 10 μM, 30° C. for 60 minutes
T1 construct: purchased Enzo Life Sciences, Inc. BML-SE456
How it was run: (§1)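 Both HDAC1 and HDAC6 (human recombinant, 0.3 μg) tested identically: 10 μM fluorogenic Fluor de Lys-SIRT1 substrate, reaction 60 min at 30° C, developer added for 30 min. IC50 calculated from Ex 360/Em 460 signal over 5-fold serial dilutions.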

human recombinant HDAC6 = target: T2, human recombinant HDAC6 (Homo sapiens, UniProt Q9UBN7); test: In vitro HDAC enzyme activity inhibition assay, HDAC6 (HDAC Fluorimetric Drug Discovery Kit); format: biochemical; conditions: for HDAC6 Selectivity (fold): HDAC6 versus HDAC1; for IC50: human recombinant HDAC6, same protocol as the HDAC1 test
T2 construct: purchased Calbiochem Inc. 382180
T2 sequence (Q9UBN7 1-1215): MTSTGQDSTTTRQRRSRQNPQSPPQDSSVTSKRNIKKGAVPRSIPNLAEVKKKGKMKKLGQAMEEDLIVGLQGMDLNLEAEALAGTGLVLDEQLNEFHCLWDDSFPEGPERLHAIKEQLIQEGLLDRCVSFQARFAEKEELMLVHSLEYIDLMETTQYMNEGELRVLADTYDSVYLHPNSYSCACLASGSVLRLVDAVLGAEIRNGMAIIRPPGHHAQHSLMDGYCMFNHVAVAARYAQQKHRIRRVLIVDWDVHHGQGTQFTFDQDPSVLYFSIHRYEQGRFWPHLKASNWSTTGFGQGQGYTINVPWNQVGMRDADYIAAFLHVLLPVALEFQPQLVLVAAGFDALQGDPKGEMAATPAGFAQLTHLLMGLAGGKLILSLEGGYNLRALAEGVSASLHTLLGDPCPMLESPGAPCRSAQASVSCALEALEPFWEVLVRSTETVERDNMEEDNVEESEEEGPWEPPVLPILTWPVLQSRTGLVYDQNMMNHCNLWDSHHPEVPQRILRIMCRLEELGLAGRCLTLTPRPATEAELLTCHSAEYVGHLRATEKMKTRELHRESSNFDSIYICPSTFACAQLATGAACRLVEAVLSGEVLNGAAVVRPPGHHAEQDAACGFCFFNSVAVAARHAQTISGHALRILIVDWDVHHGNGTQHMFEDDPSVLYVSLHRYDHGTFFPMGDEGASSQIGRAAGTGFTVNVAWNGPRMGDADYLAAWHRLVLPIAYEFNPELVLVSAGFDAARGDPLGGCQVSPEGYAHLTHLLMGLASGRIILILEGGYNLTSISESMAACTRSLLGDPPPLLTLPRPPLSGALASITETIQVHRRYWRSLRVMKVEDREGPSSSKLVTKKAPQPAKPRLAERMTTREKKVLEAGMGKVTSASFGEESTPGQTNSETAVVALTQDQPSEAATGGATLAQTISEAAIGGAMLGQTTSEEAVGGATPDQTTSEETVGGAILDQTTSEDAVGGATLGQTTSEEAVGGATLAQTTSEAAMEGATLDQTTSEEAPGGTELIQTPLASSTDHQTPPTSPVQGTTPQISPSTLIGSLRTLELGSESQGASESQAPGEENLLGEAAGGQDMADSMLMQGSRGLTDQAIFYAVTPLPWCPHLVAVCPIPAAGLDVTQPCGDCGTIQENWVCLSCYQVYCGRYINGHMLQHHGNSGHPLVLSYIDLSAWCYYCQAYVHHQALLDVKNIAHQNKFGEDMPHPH
How it was run: as §1

T1 sequence (Q13547 whole entry): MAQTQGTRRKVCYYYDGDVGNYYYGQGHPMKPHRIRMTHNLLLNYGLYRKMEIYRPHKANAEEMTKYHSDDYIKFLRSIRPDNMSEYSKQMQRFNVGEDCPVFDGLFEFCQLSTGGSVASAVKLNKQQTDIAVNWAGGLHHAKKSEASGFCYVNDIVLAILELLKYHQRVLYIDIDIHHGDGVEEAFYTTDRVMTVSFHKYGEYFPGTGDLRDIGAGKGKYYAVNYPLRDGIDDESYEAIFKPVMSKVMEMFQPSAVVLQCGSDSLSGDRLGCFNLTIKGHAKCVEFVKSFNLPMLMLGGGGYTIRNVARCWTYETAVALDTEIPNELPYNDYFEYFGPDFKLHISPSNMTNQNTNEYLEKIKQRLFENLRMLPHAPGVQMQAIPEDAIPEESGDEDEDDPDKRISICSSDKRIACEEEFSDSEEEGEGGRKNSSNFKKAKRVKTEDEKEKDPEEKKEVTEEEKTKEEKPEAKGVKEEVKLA

Compound	IC50 (human recombinant HDAC1)	HDAC6 Selectivity (fold) (human recombinant HDAC6)	IC50 (human recombinant HDAC6)
O=C(C1CCN(C2CC3(COC3)C2)CC1)N(Cc1cn2ccc(-c3nnc(C(F)F)o3)cc2n1)c1cccc(F)c1 [Compound 4619, N-((7-(5-(difluoromethyl)-1,3,4-oxadiazol-2-yl)imidazo[1,2-a]pyridin-2-yl)methyl)-N-(3-fluorophenyl)-1-(2-oxaspiro[3.3]heptan-6-yl)piperidine-4-carboxamide]	> 50000 nM	253 fold	197 nM
CS(=O)(=O)N1CCN(C(=O)N(Cc2cn3ccc(-c4nnc(C(F)F)o4)cc3n2)c2ccccc2)CC1 [Compound 4045, N-((7-(5-(difluoromethyl)-1,3,4-oxadiazol-2-yl)imidazo[1,2-a]pyridin-2-yl)methyl)-4-(methylsulfonyl)-N-phenylpiperazine-1-carboxamide]	> 50000 nM	392 fold	128 nM
O=C(C1COC1)N1CC(C(=O)N(Cc2cn3ccc(-c4nnc(C(F)F)o4)cc3n2)c2ccccc2)C1 [Compound 4171, N-((7-(5-(difluoromethyl)-1,3,4-oxadiazol-2-yl)imidazo[1,2-a]pyridin-2-yl)methyl)-1-(oxetan-3-carbonyl)-N-phenylazetidine-3-carboxamide]	> 50000 nM	141 fold	355 nM
CC(C)N1CC(C(=O)N(Cc2cn3ccc(-c4nnc(C(F)F)o4)cc3n2)c2ccccc2)C1 [Compound 4160, N-((7-(5-(difluoromethyl)-1,3,4-oxadiazol-2-yl)imidazo[1,2-a]pyridin-2-yl)methyl)-1-isopropyl-N-phenylazetidine-3-carboxamide]	> 50000 nM	247 fold	202 nM
O=C(C1CCN(C2CCC2)CC1)N(Cc1cn2ccc(-c3nnc(C(F)F)o3)cc2n1)c1cccc(F)c1 [Compound 4141, 1-cyclobutyl-N-((7-(5-(difluoromethyl)-1,3,4-oxadiazol-2-yl)imidazo[1,2-a]pyridin-2-yl)methyl)-N-(3-fluorophenyl)piperidine-4-carboxamide]	> 50000 nM	204 fold	245 nM
CC(CO)N1CCN(C(=O)N(Cc2cn3ccc(-c4nnc(C(F)F)o4)cc3n2)c2cccc(F)c2)CC1 (stereo not drawn) [Compound 4086, N-((7-(5-(difluoromethyl)-1,3,4-oxadiazol-2-yl)imidazo[1,2-a]pyridin-2-yl)methyl)-N-(3-fluorophenyl)-4-(1-hydroxypropan-2-yl)piperazine-1-carboxamide]	> 50000 nM	249 fold	201 nM
O=C(CO)N1CC(C(=O)N(Cc2cn3ccc(-c4nnc(C(F)F)o4)cc3n2)c2cccc(F)c2)C1 [Compound 4199, N-((7-(5-(difluoromethyl)-1,3,4-oxadiazol-2-yl)imidazo[1,2-a]pyridin-2-yl)methyl)-N-(3-fluorophenyl)-1-(2-hydroxyacetyl) azetidine-3-carboxamide]	> 50000 nM	200 fold	250 nM
O=C(N1CCN(C2CCCCC2)CC1)N(Cc1cn2ccc(-c3nnc(C(F)F)o3)cc2n1)c1ccccc1 [Compound 4037, 4-cyclohexyl-N-((7-(5-(difluoromethyl)-1,3,4-oxadiazol-2-yl)imidazo[1,2-a]pyridin-2-yl)methyl)-N-phenylpiperazine-1-carboxamide]	> 50000 nM	404 fold	124 nM
O=C(C1CCC1)N1CC(C(=O)N(Cc2cn3ccc(-c4nnc(C(F)F)o4)cc3n2)c2ccccc2)C1 [Compound 4170, 1-(cyclobutanecarbonyl)-N-((7-(5-(difluoromethyl)-1,3,4-oxadiazol-2-yl)imidazo[1,2-a]pyridine-2-yl)methyl)-N-phenylazetidine-3-carboxamide]	> 50000 nM	144 fold	347 nM

The remaining lines, values ahead:

IC50 (human recombinant HDAC1)	HDAC6 Selectivity (fold) (human recombinant HDAC6)	IC50 (human recombinant HDAC6)	Compound
> 50000 nM	538 fold	93 nM	CCN1CCN(C(=O)N(Cc2cn3ccc(-c4nnc(C(F)F)o4)cc3n2)c2ccccc2)CC1 [Compound 4033, N-((7-(5-(difluoromethyl)-1,3,4-oxadiazol-2-yl)imidazo[1,2-a]pyridin-2-yl)methyl)-4-ethyl-N-phenylpiperazine-1-carboxamide]
> 50000 nM	335 fold	149 nM	O=C(C1CCN(C2CCCCC2)CC1)N(Cc1cn2ccc(-c3nnc(C(F)F)o3)cc2n1)c1cccc(F)c1 [Compound 4143, 1-cyclohexyl-N-((7-(5-(difluoromethyl)-1,3,4-oxadiazol-2-yl)imidazo[1,2-a]pyridin-2-yl)methyl)-N-(3-fluorophenyl)piperidine-4-carboxamide]
> 50000 nM	163 fold	307 nM	CCC(=O)N1CCC(C(=O)N(Cc2cn3ccc(-c4nnc(C(F)F)o4)cc3n2)c2ccccc2)CC1 [Compound 4123, N-((7-(5-(difluoromethyl)-1,3,4-oxadiazol-2-yl)imidazo[1,2-a]pyridin-2-yl)methyl)-N-phenyl-1-propionylpiperidine-4-carboxamide]
> 50000 nM	217 fold	230 nM	O=C(C1CCN(C2CCC(F)(F)CC2)CC1)N(Cc1cn2ccc(-c3nnc(C(F)F)o3)cc2n1)c1cccc(F)c1 [Compound 4145, 1-(4,4-difluorocyclohexyl)-N-((7-(5-(difluoromethyl)-1,3,4-oxadiazol-2-yl)imidazo[1,2-a]pyridin-2-yl)methyl)-N-(3-fluorophenyl)piperidine-4-carboxamide]
> 50000 nM	373 fold	134 nM	CC(CO)N1CC(C(=O)N(Cc2cn3ccc(-c4nnc(C(F)F)o4)cc3n2)c2cccc(F)c2)C1 (stereo not drawn) [Compound 4191, N-((7-(5-(difluoromethyl)-1,3,4-oxadiazol-2-yl)imidazo[1,2-a]pyridin-2-yl)methyl)-N-(3-fluorophenyl)-1-(1-hydroxypropan-2-yl) azetidine-3-carboxamide]
> 50000 nM	421 fold	119 nM	CC(=O)N1CCN(C(=O)N(Cc2cn3ccc(-c4nnc(C(F)F)o4)cc3n2)c2ccccc2)CC1 [Compound 4040, 4-acetyl-N-((7-(5-(difluoromethyl)-1,3,4-oxadiazol-2-yl)imidazo[1,2-a]pyridin-2-yl)methyl)-N-phenylpiperazine-1-carboxamide]
> 50000 nM	116 fold	432 nM	COc1ccc(Cc2cn3ccc(-c4nnc(C(F)F)o4)cc3n2)cc1 [Compound 3590]
> 50000 nM	234 fold	214 nM	O=C(C1CCN(C2COC2)CC1)N(Cc1cn2ccc(-c3nnc(C(F)F)o3)cc2n1)c1cccc(F)c1 [Compound 4142, N-((7-(5-(difluoromethyl)-1,3,4-oxadiazol-2-yl)imidazo[1,2-a]pyridin-2-yl)methyl)-N-(3-fluorophenyl)-1-(oxetan-3-yl)piperidine-4-carboxamide]
> 50000 nM	112 fold	447 nM	CC(=O)N1CC(C(=O)N(Cc2cn3ccc(-c4nnc(C(F)F)o4)cc3n2)c2ccccc2)C1 [Compound 4167, 1-acetyl-N-((7-(5-(difluoromethyl)-1,3,4-oxadiazol-2-yl)imidazo[1,2-a]pyridine-2-yl)methyl)-N-phenylazetidine-3-carboxamide]
